Measurements from ChEMBL document CHEMBL4028822, “Identification and structure activity relationship of novel flavone derivatives that inhibit the production of nitric oxide and PGE2 in LPS-induced RAW 264.7 cells” (Bioorg Med Chem Lett, 2017).
pIC50: −log10 of the molar value.

What was measured:
RAW264.7 [1] = test: Antiinflammatory activity in mouse RAW264.7 cells assessed as inhibition of LPS-stimulated NO production by ELISA; assay type: functional, cell-based
RAW264.7 [2] = test: Antiinflammatory activity in mouse RAW264.7 cells assessed as inhibition of LPS-stimulated PGE2 production by ELISA; assay type: functional, cell-based
RAW264.7 [3] = test: Cytotoxicity against mouse RAW264.7 cells by MTT assay; assay type: cell-based
[4] = Cytotoxicity against LPS-stimulated mouse RAW264.7 cells assessed as cell viability at 20 uM by MTT assay (reference value: 100.01 +/- 0.05 %); assay type: cell-based; conditions: LPS-stimulated RAW264.7 cells, read-out: Activity
RAW264.7 [5] = test: Antiinflammatory activity in mouse RAW264.7 cells assessed as inhibition of LPS-stimulated NO production at 20 uM by ELISA relative to control; assay type: functional
RAW264.7 [6] = test: Antiinflammatory activity in mouse RAW264.7 cells assessed as inhibition of LPS-stimulated NO production at 10 uM by ELISA relative to control; assay type: functional
[7] = Cytotoxicity against LPS-stimulated mouse RAW264.7 cells assessed as cell viability at 10 uM by MTT assay (reference value: 100.01 +/- 0.05 %); assay type: cell-based; conditions: LPS-stimulated RAW264.7 cells, read-out: Activity
RAW264.7 [8] = test: Antiinflammatory activity in mouse RAW264.7 cells assessed as inhibition of LPS-stimulated NO production at 5 uM by ELISA relative to control; assay type: functional
[9] = Cytotoxicity against LPS-stimulated mouse RAW264.7 cells assessed as cell viability at 5 uM by MTT assay (reference value: 100.01 +/- 0.05 %); assay type: cell-based; conditions: LPS-stimulated RAW264.7 cells, read-out: Activity

SMILES: COc1cc(OC)c2c(=O)cc(-c3ccc(O)c(O)c3)oc2c1
- pIC50 (RAW264.7 [1]): 4.46
- pIC50 (RAW264.7 [2]): 4.85
- pIC50 (RAW264.7 [3]): < 3.70

SMILES: O=c1cc(-c2cccc(O)c2)oc2ccccc12
- viability at 20 µM [4]: 97%
- inhibition at 20 µM (RAW264.7 [5]): 17.7%

SMILES: O=c1cc(-c2ccc(Cl)cc2)oc2ccccc12
- viability at 20 µM [4]: 85.8%
- inhibition at 20 µM (RAW264.7 [5]): 5.07%

SMILES: O=c1cc(-c2ccc(C(F)(F)F)cc2)oc2ccccc12
- viability at 20 µM [4]: 87.9%
- inhibition at 20 µM (RAW264.7 [5]): 10.7%

SMILES: O=c1cc(-c2ccc(O)c(O)c2)oc2ccccc12
- pIC50 (RAW264.7 [1]): 5.20
- pIC50 (RAW264.7 [2]): 6.00
- inhibition at 10 µM (RAW264.7 [6]): 64.3%
- pIC50 (RAW264.7 [3]): 4.35
- viability at 10 µM [7]: 93.6%

SMILES: O=c1cc(-c2ccccc2)oc2cc3c(cc12)OCO3
- viability at 20 µM [4]: 119%
- inhibition at 20 µM (RAW264.7 [5]): 20.9%

SMILES: O=c1cc(-c2ccc(-c3ccccc3)cc2)oc2ccccc12
- viability at 20 µM [4]: 92.3%
- inhibition at 20 µM (RAW264.7 [5]): 4.45%

SMILES: O=c1cc(-c2ccccc2)oc2ccc([N+](=O)[O-])cc12
- viability at 20 µM [4]: 90.8%
- inhibition at 20 µM (RAW264.7 [5]): 11.9%

SMILES: O=c1cc(-c2ccc(O)cc2)oc2ccccc12
- viability at 20 µM [4]: 96.1%
- pIC50 (RAW264.7 [1]): 4.32
- pIC50 (RAW264.7 [2]): 5.42
- inhibition at 20 µM (RAW264.7 [5]): 37.5%
- pIC50 (RAW264.7 [3]): 3.84

SMILES: COc1cccc(-c2cc(=O)c3ccccc3o2)c1
- viability at 20 µM [4]: 102%
- inhibition at 20 µM (RAW264.7 [5]): 15.7%

SMILES: CC(C)(C)c1ccc(-c2cc(=O)c3ccccc3o2)cc1
- viability at 20 µM [4]: 99.1%
- inhibition at 20 µM (RAW264.7 [5]): 19.5%

SMILES: O=c1cc(-c2ccc(-c3cccc4ccccc34)cc2)oc2ccccc12
- viability at 20 µM [4]: 99.8%
- inhibition at 20 µM (RAW264.7 [5]): 11.6%

SMILES: CC(C)(C)C(=O)Oc1ccc2c(=O)cc(-c3ccccc3)oc2c1
- viability at 20 µM [4]: 102%
- inhibition at 20 µM (RAW264.7 [5]): 28.6%

SMILES: COc1ccc(-c2cc(=O)c3ccccc3o2)c(OC)c1
- viability at 20 µM [4]: 107%
- inhibition at 20 µM (RAW264.7 [5]): 20.9%

SMILES: C[Si](C)(C)c1ccc(-c2cc(=O)c3ccccc3o2)cc1
- viability at 20 µM [4]: 95%
- inhibition at 20 µM (RAW264.7 [5]): 18%

SMILES: O=c1cc(-c2ccc(F)cc2)oc2ccccc12
- viability at 20 µM [4]: 92.4%
- inhibition at 20 µM (RAW264.7 [5]): 21.2%

SMILES: O=c1cc(-c2ccccc2)oc2ccc(F)cc12
- viability at 20 µM [4]: 75.2%
- inhibition at 20 µM (RAW264.7 [5]): 20.4%

SMILES: COc1ccc(-c2cc(=O)c3ccccc3o2)cc1OC [3',4'-DIMETHOXYFLAVONE]
- viability at 20 µM [4]: 117%
- pIC50 (RAW264.7 [1]): 4.46
- pIC50 (RAW264.7 [2]): 5.19
- inhibition at 20 µM (RAW264.7 [5]): 33.3%
- pIC50 (RAW264.7 [3]): 4.40

SMILES: COc1ccc(-c2cc(=O)c3ccccc3o2)cc1 [4'-METHOXYFLAVONE]
- viability at 20 µM [4]: 111%
- inhibition at 20 µM (RAW264.7 [5]): 8.76%

SMILES: O=c1cc(-c2ccccc2)oc2ccc(Cl)cc12 [6-CHLOROFLAVONE]
- viability at 20 µM [4]: 91.4%
- inhibition at 20 µM (RAW264.7 [5]): 26.1%

SMILES: COc1ccc2oc(-c3ccccc3)cc(=O)c2c1 [6-METHOXYFLAVONE]
- viability at 20 µM [4]: 116%
- inhibition at 20 µM (RAW264.7 [5]): 22.2%

SMILES: Cc1ccc2oc(-c3ccccc3)cc(=O)c2c1 [6-METHYLFLAVONE]
- viability at 20 µM [4]: 116%
- inhibition at 20 µM (RAW264.7 [5]): 17.4%

SMILES: COc1ccc2c(=O)cc(-c3ccccc3)oc2c1 [7-METHOXYFLAVONE]
- viability at 20 µM [4]: 133%
- inhibition at 20 µM (RAW264.7 [5]): 17.7%

SMILES: COc1cc(OC)c2c(=O)cc(-c3ccccc3)oc2c1 [CHRYSIN DIMETHYL ETHER]
- viability at 20 µM [4]: 134%
- pIC50 (RAW264.7 [1]): 4.48
- pIC50 (RAW264.7 [2]): 5.13
- inhibition at 20 µM (RAW264.7 [5]): 31.5%
- pIC50 (RAW264.7 [3]): 4.18

SMILES: O=c1cc(-c2ccccc2)oc2ccccc12 [FLAVONE]
- viability at 20 µM [4]: 95.4%
- inhibition at 20 µM (RAW264.7 [5]): 16.3%

SMILES: CC(C)Cc1ccc(C(C)C(=O)O)cc1 (centres undefined) [IBUPROFEN]
- pIC50 (RAW264.7 [1]): 2.83
- pIC50 (RAW264.7 [2]): 6.41
- pIC50 (RAW264.7 [3]): 2.48

SMILES: O=c1cc(-c2ccc(O)c(O)c2)oc2cc(O)cc(O)c12 [LUTEOLIN]
- inhibition at 5 µM (RAW264.7 [8]): 19.5%
- viability at 5 µM [9]: 98%
- pIC50 (RAW264.7 [1]): 5.30
- pIC50 (RAW264.7 [2]): 5.54
- pIC50 (RAW264.7 [3]): 4.72

SMILES: CS(=O)(=O)Nc1ccc([N+](=O)[O-])cc1OC1CCCCC1 [NS-398]
- pIC50 (RAW264.7 [2]): 5.17

SMILES: COc1cc(OC)c2c(=O)cc(-c3ccc(OC)c(OC)c3)oc2c1 [TETRAMETHYLLUTEOLIN]
- viability at 20 µM [4]: 109%
- pIC50 (RAW264.7 [1]): 4.49
- pIC50 (RAW264.7 [2]): 5.50
- inhibition at 20 µM (RAW264.7 [5]): 37.6%
- pIC50 (RAW264.7 [3]): 4.13

SMILES: COc1ccc(-c2cc(=O)c3c(OC)cc(OC)cc3o2)cc1 [TRIMETHYLAPIGENIN]
- viability at 20 µM [4]: 103%
- inhibition at 20 µM (RAW264.7 [5]): 27.2%
